pIC50: −log10 of the molar value. Like-named read-outs stand apart in the source and are kept apart here. One block for each compound: values may come before it.
Experiments:
[1] = system: DLD-1 (human colon carcinoma cells); assay: In vivo anti-tumor studies, subcutaneous DLD-1 tumors in athymic nu/nu mice; parameters: species or system athymic nu/nu female mice; settings: Mus musculus, DLD-1, po, […], QID, 7 days per week for 4 weeks, read-out: Average % Tumor Inhibition; for inhibition in vivo at 50 mg/kg: 50 mg/kg p.o.; for inhibition in vivo at 10 mg/kg: 10 mg/kg p.o.
Experimental: Tumor bearing animals are selected and randomized when the tumors are established. Animals are treated with vehicle (β-cyclodextrin for i.p. or corn oil for p.o.) only or with a compound of the present invention in vehicle four times a day (QID) for 7 days per week for 4 weeks. The percent inhibition of tumor growth relative to vehicle controls is determined by tumor measurements.

[2] = system: geranylgeranylation of Ras-CVLL in COS cells; assay: Cell-based COS cell assay: geranylgeranylation of Ras-CVLL; parameters: species or system monkey; settings: at concentrations up to 33 μM
Text: (§1) Transient expression of val^12 -Ha-Ras-CVLS and […] -Ha-Ras-CVLL in COS monkey kidney cells: Effect of farnesyl protein transferase inhibitors on Ras processing and on disordered cell growth induced by transforming Ras.
COS monkey kidney cells were transfected by electroporation with the plasmid pSV-SPORT (Gibco/BRL) containing a cDNA insert encoding either Ras-CVLS or Ras-CVLL, leading to transient overexpression of a Ras substrate for either farnesyl protein transferase or geranylgeranyl protein transferase I, respectively (see above). […]
Membranes were blocked by incubation overnight at 4° C. in PBS containing 2.5% dried milk and 0.5% Tween-20 and then incubated with a Ras-specific monoclonal antibody, Y13-259 (Furth, M. E., et al., (1982), Monoclonal antibodies to the p21 products of the transforming gene of Harvey murine sarcome virus and of the cellular ras gene family, J. Virol. 43:294-304), in PBS containing 1% fetal calf serum for one hour at room temperature. […] The presence of processed and unprocessed Ras-CVLS or Ras-CVLL was detected using a colorimetric peroxidase reagent (4-chloro-1-naphthol) as described by the manufacturer (Bio-Rad).

[3] = system: Ras-CVLS processing in COS cells; assay: Cell-based COS cell assay: inhibition of Ras processing (Ras-CVLS); parameters: species or system monkey; settings: Primates, COS
Text: as §1
COS monkey kidney cells were transfected by electroporation with the plasmid pSV-SPORT (Gibco/BRL) containing a cDNA insert encoding either Ras-CVLS or Ras-CVLL, leading to transient overexpression of a Ras substrate for either farnesyl protein transferase or geranylgeranyl protein transferase I, respectively (see above).
Following electroporation, cells were plated into 6-well tissue culture dishes containing 1.5 ml of Dulbecco's-modified Eagle's media (GIBCO, Inc.) supplemented with 10% fetal calf serum and the appropriate farnesyl protein transferase inhibitors. After 24 hours, media was removed and fresh media containing the appropriate drugs was re-added.
48 hours after electroporation cells were examined under the microscope to monitor disordered cell growth induced by transforming Ras. Cells expressing transforming Ras become more rounded and refractile and overgrow the monolayer, reminiscent of the transformed phenotype. Cells were then photographed, washed twice with 1 ml of cold phosphate-buffered saline (PBS) and removed from the dish by scraping with a rubber policeman into 1 ml of a buffer containing 25 mM Tris, pH 8.0; 1 mM ethylenediamine tetraacetic acid; 1 mM phenylmethylsulfonyl fluoride; […]; and 0.1 mM pepstatin. Cells were lysed by homogenization and cell debris was removed by centrifugation at 2000× g for 10 min.
Cellular protein was precipitated by addition of ice-cold trichloroacetic acid and redissolved in […] of SDS-electrophoresis sample buffer. […] Proteins resolved on the gels were electroblotted onto nitrocellulose membranes for immunodetection.
After washing, membranes were incubated for one hour at room temperature with a 1:5000 dilution of secondary antibody, rabbit anti-rat lgG conjugated to horseradish peroxidase, in PBS containing 1% fetal calf serum. The presence of processed and unprocessed Ras-CVLS or Ras-CVLL was detected using a colorimetric peroxidase reagent (4-chloro-1-naphthol) as described by the manufacturer (Bio-Rad).

K ras NIH 3T3 = assay: Soft agar assay; type: cell-based; settings: Mus musculus, NIH3T3, read-out: IC50, inhibition of human tumor cell growth, soft agar
A549 = assay: Soft agar assay; type: cell-based; settings: Homo sapiens; A549 (lung) K ras mutation; read-out: IC50, inhibition of human tumor cell growth, soft agar
Experimental: (§2) Anchorage-independent growth is a characteristic of tumorigenic cell lines. Human tumor cells are suspended in growth medium containing 0.3% agarose and an indicated concentration of a farnesyl transferase inhibitor. The solution is overlayed onto growth medium solidified with 0.6% agarose containing the same concentration of farnesyl transferase inhibitor as the top layer. […] After incubation, the colonies are stained by overlaying the agar with a solution of MTT (3-[4,5-dimethylthiazol-2-yl]-2,5-diphenyltetrazolium bromide, Thiazolyl blue) (1 mg/mL in PBS). Colonies are counted and the IC50's determined.

HTB 175 = assay: Soft agar assay; type: cell-based; settings: Homo sapiens; HTB 175 (SCLC) ras mut. not detected; read-out: IC50, inhibition of human tumor cell growth, soft agar
Experimental: as §2

HTB 177 = assay: Soft agar assay; type: cell-based; settings: Homo sapiens; HTB 177 (NSCLC) K ras mutation; read-out: IC50, inhibition of human tumor cell growth, soft agar
Experimental: as §2

H ras NIH 3T3 = assay: Soft agar assay; type: cell-based; settings: Mus musculus, NIH3T3, read-out: IC50, inhibition of human tumor cell growth, soft agar
[4] = system: T24-BAG4 human bladder carcinoma cells expressing an activated H-ras gene; assay: Cell mat assay, T24-BAG4 tumor cells; type: cell-based; settings: Homo sapiens, 336 h, read-out: Tumor (T-24) IC50
Experimental: (§3) Compound-induced colony inhibition was assayed by addition of serial dilutions of compound directly to the growth medium 24 h after tumor cell planting, and incubating cells for an additional 14 d to allow colony formation. Assays were terminated by rinsing monolayers twice with phosphate-buffered saline (PBS), fixing the monolayers with a 1% glutaraldehyde solution in PBS, then visualizing tumor cells by staining with X-Gal (Price, J., et al., Lineage analysis in the vertebrate nervous system by retrovirus-mediated gene transfer, Proc. Natl. Acad. Sci.84, 156-160(1987)). […] Both IC50 values were obtained by determining the density of tumor cells and mat cells by visual inspection and enumeration of cells per colony and the number of colonies under the microscope.

[5] = system: DLD-1-BAG human colon carcinoma cells; assay: Cell mat assay, DLD-1-BAG tumor cells; type: cell-based; settings: Homo sapiens, DLD-1, 336 h, read-out: Tumor (DLD-1) IC50
Experimental: as §3
(§4) Additional assays were carried out by following essentially the same procedure as described above, but with substitution of alternative indicator tumor cell lines in place of the T24-BAG cells. The assays were conducted using either DLD-1-BAG human colon carcinoma cells expressing as activated K-ras gene or SW620-BAG human colon carcinoma cells expressing an activated K-ras gene.

[6] = system: SW620-BAG human colon carcinoma cells expressing an activated K-ras gene; assay: Cell mat assay, SW620-BAG tumor cells; type: cell-based; settings: Homo sapiens, SW-620, 336 h, read-out: Tumor (SW620) IC50, Mat assay, 14 d
Experimental: as §3, §4

[7] = target: T1, geranylgeranyl protein transferase (GGPT) I (Rattus norvegicus, UniProt P53610+Q04631); assay: In vitro enzyme assay: inhibition of geranylgeranyl protein transferase I (GGPT), Ras-CVLL as acceptor; type: biochemical
T1 construct: were partially purified from rat brain by ammonium sulfate fractionation; from tissue; host or cells: rat brain (ammonium sulfate fractionation, Q-Sepharose)
T1 sequence (P53610 whole entry, one chain of several): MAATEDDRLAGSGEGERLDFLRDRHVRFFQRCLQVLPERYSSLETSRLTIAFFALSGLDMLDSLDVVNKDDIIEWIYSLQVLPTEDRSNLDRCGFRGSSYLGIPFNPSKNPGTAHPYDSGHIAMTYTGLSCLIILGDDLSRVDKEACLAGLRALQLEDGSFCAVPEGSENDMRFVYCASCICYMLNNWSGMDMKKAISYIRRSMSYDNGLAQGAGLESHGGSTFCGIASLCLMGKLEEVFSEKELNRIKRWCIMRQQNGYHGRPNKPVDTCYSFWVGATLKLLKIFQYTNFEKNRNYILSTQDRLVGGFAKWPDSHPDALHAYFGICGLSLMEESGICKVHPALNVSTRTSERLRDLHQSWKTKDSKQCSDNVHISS
Text: (§5) 1. In vitro enzyme assays:
(§6) Inhibition of farnesyl protein transferase and geranylgeranyl protein transferase.
Both farnesyl protein transferase (FPT) and geranylgeranyl protein transferase (GGPT) I were partially purified from rat brain by ammonium sulfate fractionation followed by Q-Sepharose (Pharmacia, Inc.) anion exchange chromatography essentially as described by Yokoyama et al (Yokoyama, K., et al., (1991), A protein geranylgeranyltransferase from bovine brain: Implications for protein prenylation specificity, Proc. Natl. Acad. Sci USA 88: 5302-5306, the disclosure of which is incorporated herein by reference thereto). Human farnesyl protein transferase was also expressed in E. coli, using cDNA clones encoding both the a and b subunits. The methods used were similar to those published (Omer, C. et al., (1993), Characterization of recombinant human farnesyl protein transferase: Cloning, expression, farnesyl diphosphate binding, and functional homology with yeast prenyl-protein transferases, Biochemistry 32:5167-5176). Human farnesyl protein transferase was partially-purified from the soluble protein fraction of E. coli as described above. The tricyclic farnesyl protein transferase inhibitors disclosed herein inhibited both human and rat enzyme with similar potencies. […]

[8] = system: Normal human HEPM fibroblasts; assay: Cell mat assay, normal cells (cell mat); type: cell-based; settings: Homo sapiens, Fibroblast, 336 h, read-out: Normal IC50
Experimental: as §3

[9] = target: T2, farnesyl protein transferase (FPT) (Rattus norvegicus, UniProt Q02293+Q04631); assay: In vitro enzyme assay: inhibition of farnesyl protein transferase (FPT), [3H]farnesyl transfer to Ras-CVLS; type: biochemical
T2 construct: were partially purified from rat brain by ammonium sulfate fractionation; from tissue; host or cells: rat brain (ammonium sulfate fractionation, Q-Sepharose)
Experimental: as §5, §6
Human farnesyl protein transferase was also expressed in E. coli, using cDNA clones encoding both the a and b subunits. […] Human farnesyl protein transferase was partially-purified from the soluble protein fraction of E. coli as described above. […] Two forms of val^12 -Ha-Ras protein were prepared as substrates for these enzymes, differing in their carboxy terminal sequence. One form terminated in cysteine-valine-leucine-serine (Ras-CVLS) the other in cystein-valine-leucine-leucine (Ras-CVLL). Ras-CVLS is a substrate for the farnesyl protein transferase while Ras-CVLL is a substrate for geranylgeranyl protein transferase I. The cDNAs encoding these proteins were constructed so that the proteins contain an amino-terminal extension of 6 histidine residues. Both proteins were expressed in Escherichia coli and purified using metal chelate affinity chromatography. The radiolabelled isoprenyl pyrophosphate substrates, [^3 H]farnesyl pyrophosphate and [^3 H] geranylgeranyl pyrophosphate, were purchased from DuPont/New England Nuclear.
The reaction was allowed to proceed for 30 minutes at room temperature and then stopped with 0.5 ml of 4% sodium dodecyl sulfate (SDS) followed by 0.5 ml of cold 30% TCA. Samples were allowed to sit on ice for 45 minutes and precipitated Ras protein was then collected on GF/C filter paper mats using a Brandel cell harvester. […] Percent inhibition was calculated relative to the DMSO vehicle control.

SMILES: O=C(Cc1cc[n+]([O-])cc1)N1CCC(=C2c3ccc(Cl)c(Br)c3CCc3cc(Br)cnc32)CC1 [Example 2]
inhibition in vivo at 50 mg/kg ([1]; Experiment No. 1): 47%
inhibition in vivo at 10 mg/kg ([1]; Experiment No. 2): 25%
inhibition in vivo at 50 mg/kg ([1]; Experiment No. 3): 52.7%
inhibition in vivo at 10 mg/kg ([1]; Experiment No. 4): 31.9%
block of geranylgeranylation of Ras-CVLL [2]: did not block the geranylgeranylation of Ras-CVLL
pIC50 ([3]; Table 3, COS cells, read-out: Inhibition of Ras Processing IC50): 6.60

pIC50 (A549): 6.52
SMILES: NC(=O)N1CCC(CC(=O)N2CCC(C3c4ncc(Br)cc4CCc4cc(Cl)cc(Cl)c43)CC2)CC1 (single isomer, unassigned) [Example 18]
pIC50 (K ras NIH 3T3): 6.10
inhibition in vivo at 50 mg/kg ([1]; Experiment No. 1): 73%
inhibition in vivo at 10 mg/kg ([1]; Experiment No. 2): 43%
pIC50 (HTB 175): 6.22
pIC50 (HTB 177): 6.70
pIC50 (H ras NIH 3T3): 6.76

SMILES: O=C(Cc1cc[n+]([O-])cc1)N1CCN(C2c3ccc(Cl)c(Br)c3CCc3cc(Br)cnc32)CC1 (racemic) [Example 5B]
pIC50 [4]: > 5.80
pIC50 [5]: 5.51
pIC50 [6]: 5.00
pIC50 [7]: < 3.52
pIC50 [8]: < 4.60
pIC50 [9]: ~8.52
pIC50 ([3]; read-out: Inhibition of Ras Processing IC50, Table 3, COS cells): 7.30

SMILES: O=C(Cc1cc[n+]([O-])cc1)N1CCN(C2c3ncc(Br)cc3CCc3cccc(Cl)c32)CC1 (single isomer, unassigned) [Example 20]
pIC50 [7]: < 4.42
pIC50 [9]: 8.21
